Measurements: patent US20100217003A1, “1,2,3,4-TETRAHYDROISOQUINOLINE DERIVATIVES HAVING EFFECTS OF PREVENTING AND TREATING DEGENERATIVE AND INFLAMMATORY DISEASES” (priority 2006, published 2010)

Assays:
BV-2 cell = test: Inhibitory effect on NO production in LPS-stimulated BV-2 microglial cells (Griess); assay type: cell-based, mouse
Method: BV-2 microglial cell line, CATH.a neuron line and SK-N-BE(2)C neuron line were cultured in Dulbecco's modified Eagle's medium (DMEM) supplemented with 10% bovine serum, […] penicillin, and 10 ? /ml streptomycin at 37° C. in an atmosphere of 5% CO2 and 95% air. The cells were planted on a polystyrene petri dish at the following densities: BV-2 (2.5×10^5 cells/24 well or 2.6×10^6 cells/60 mm dish; SK− N-BE(2)C (1.5×10^5 cells/24 well); and CATH.a (2.4×10^4 cells/96 well).
Measurement of NO Production
200 ? of cell culture medium fraction and 100 ? of Griess reagent (2.5% […], 1% sulfanilamide and 0.1% naphthylethylenediamine dihydrochloride) were mixed in a 96-well microtiter plate, and the absorbance of a sample was read at 540 nm using a microtiter plate reader (multi-well spectrophotometer). The concentration of nitrite was calculated using a standard curve for sodium nitrite.
To determine whether EHMTIQ (11a) inhibits NO production in an activated […] cell, a mouse microglial cell line, BV-2, was used in this assay. Lipopolysaccharide (LPS)-stimulated BV-2 cell samples were treated with various concentrations of EHMTIQ (11a) and then the NO level of a sample was measured. The results are illustrated in FIG. 1.

TNF-α mRNA = test: Expression of TNF-α genes in LPS-stimulated BV-2 cells (RT-PCR); assay type: cell-based, mouse
Method: (§1) RT-PCR for GTPCH, iNOS, TNF-α, IL-1β and COX-2
(§2) 5 ? each of total RNA samples isolated from BV-2 cells were subjected to reverse-transcription (RT), and then polymerase chain reaction (PCR) for 30 cycles under the conditions of 94° C. for 30 seconds, 60° C. for 40 seconds and 72° C. for one minute. Primers used in the PCR were as follows: iNOS (forward, ATGTCCGAAG-CAAACATCAC; reverse, TAATGTC CAGGAAGTAGGTG), TNF-α (forward, CA-[…] reverse, CAGAGCAATGACTC-CAAAGTAGACCT), IL-1β (forward, […]; reverse, CAGGACAGGTAT AGATTCTTTCCTTT), COX-2 (forward, […]; reverse, […]), GTPCH (forward, GGATACCAGGAGACCAT CTCA; reverse, TAGCATGGTGC-TAGTGACAGT). RT-PCR for B2M was simultaneously performed as internal control. The PCR products were subjected to electrophoresis in a 1.5% agarose gel, thereby confirming the presence of a desired size of single band.
The assay was performed to determine whether EHMTIQ (11a) affects TNF-α production in an activated microglial cell. LPS-stimulated BV-2 cell samples were treated with various concentrations of EHMTIQ (11a) and the expression of TNF-α genes was estimated by RT-PCR. The results are illustrated in FIG. 3.

COX-2 mRNA = test: Expression of COX-2 genes in LPS-stimulated BV-2 cells (RT-PCR); assay type: cell-based, mouse
Method: as §1, §2
The gene expression of cyclooxigenase-2 (COX-2) stimulating a prostaglandin synthesis causing oxidative stress to neurons increased by the activation of a microglial cell. LPS-stimulated BV-2 cell samples were treated with various concentrations of EHMTIQ (11a), and the expression of COX-2 genes was estimated by RT-PCR. The results are illustrated in FIG. 5.

iNOS mRNA = test: Expression of iNOS genes in LPS-stimulated BV-2 cells (RT-PCR); assay type: cell-based, mouse
Method: as §1, §2
The assay was performed to determine whether EHMTIQ (11a) affects the expression of iNOS genes. LPS-stimulated BV-2 cell samples were treated with various concentrations of EHMTIQ (11a), and the expression of iNOS gene was estimated by RT-PCR. The results are illustrated in FIG. 6.

GTPCH mRNA = test: Expression of GTPCH genes in LPS-stimulated BV-2 cells (RT-PCR); assay type: cell-based, mouse
Method: as §1, §2
GTP cyclohydrolase I (GTPCH) is a rate-limiting enzyme in the synthesis of tetrahydrobiopterin (BH4) which is essential for iNOS catalysis. Accordingly, the down regulation of GTPCH may lower NO production. The assay was performed to determine whether EHMTIQ (11a) affects the expression of GTPCH genes induced by LPS. The LPS-stimulated BV-2 cell samples were treated with various concentrations of EHMTIQ (11a) and the expression of GTPCH genes was estimated by RT-PCR. The results are illustrated in FIG. 7.

[1] = Free-radical scavenging activity (DPPH); details: various concentrations
Method: Measurement of Free-Radical Scavenging Activity
Antioxidant activity was evaluated based on scavenging activity of 2,2-diphenyl-1-picrylhydrazyl (DPPH) radical. DPPH was dissolved in 80% methanol to make a final concentration of 100 ? . 8 ? of EHMTIQ (11a) dissolved in dimethyl sulfoxide reacted with 232 ? of DPPH radical solution. The reaction mixture was incubated for 25 minutes at RT, and then the absorbance of DPPH was measured at 517 nm using a SpectraMax GEMINI XS fluorescence spectrophotometer (Molecular Devices, Sunnyvale, Calif., USA).
Free radicals produced by an activated microglial cell cause oxidative stress and structural transformation in protein, nucleic acid and lipids of a neuron, which lead to cell injury. Accordingly, the assay was performed to determine whether EHMTIQ (11a) has free radical scavenging activity.

mouse liver cell = test: Toxicity to mouse liver cell; assay type: in vivo; details: FIG. 16

CCC(=O)N1CCc2cc(OC)c(O)cc2C1 [EHMTIQ (11a), 2-ethylcarbonyl-7-hydroxy-6-methoxy-1,2,3,4-tetrahydroisoquinoline]
NO production induced by LPS, compared with the control not treated with EHMTIQ (BV-2 cell; 5 (concentration unit printed as image)): 63±4%
NO production (BV-2 cell; 100 (concentration unit printed as image)): inhibit NO production to the control level
IC50 (BV-2 cell; Mus musculus, unit printed as image): 2810 nM
mRNA level of TNF-α (TNF-α mRNA; 2.5 (unit as image)): decreased the mRNA level to a statistically significant level
mRNA level of TNF-α compared to the control only treated with LPS (TNF-α mRNA; 5 (unit as image)): 74±1%
mRNA level of TNF-α compared to the control only treated with LPS (TNF-α mRNA; 100 (unit as image)): 36±1%
COX-2 expression (COX-2 mRNA; 2.5 (unit as image)): 62±3%
COX-2 expression (COX-2 mRNA; 5 (unit as image)): 75±3%
COX-2 expression (COX-2 mRNA; 10 (unit as image)): 83±2%
expression of iNOS genes compared to the control only treated with LPS (iNOS mRNA; 5 (unit as image)): 82±1%
expression of iNOS genes compared to the control only treated with LPS (iNOS mRNA; 100 (unit as image)): 24±1%
gene expression of GTPCH (GTPCH mRNA; 2.5 (unit as image)): 17±1%
gene expression of GTPCH (GTPCH mRNA; 100 (unit as image)): 75±1%
scavenging activity of DPPH radicals [1]: proportional to the concentration
toxicity to a mouse liver cell (mouse liver cell): non-toxicity
